Experimental findings from ChEMBL document CHEMBL1201862, “PubChem BioAssay data set” (2004) are described below.

Calls of active or inactive are those of the source.

Experiment [1] can be described thus: Luminescence Cell-Based Dose Retest to Confirm Activators of 5'UTR Stem-Loop Driven Alpha-Synuclein mRNA Translation in H4 Neuroglioblastoma Cells. [Related pubchem assays (depositor defined):AID1813, AID1829]. In kind it is functional.
Experiment [2] in a line: Luminescence Cell-Based Dose HTS Response to Identify Inhibitors of 5'UTR Stem-Loop Driven Prion Protein mRNA Translation in H4-C Neuroglioblastoma Cells. [Related pubchem assays (depositor defined):AID1814, AID1827]. In kind it is functional.
Experiment [3] can be described thus: Luminescence Cell-Based Dose Confirmation HTS to Identify Inhibitors of 5'UTR Stem-Loop Driven Alpha-Synuclein mRNA Translation in H4 Neuroglioblastoma Cells. [Related pubchem assays: 1827 (Project Summary), 1813 (Primary HTS)]. In kind it is functional.
Experiment [4] in a line: Luminescence Cell-Based Dose Response HTS to Identify Activators of 5'UTR Stem-Loop Driven Prion Protein mRNA Translation in H4-C Neuroglioblastoma Cells. [Related pubchem assays: 1829 (Project Summary), 1814 (Primary HTS)]. It counts as functional.
Experiment [5] is described as follows: Luminescence Cell-Based Dose Response HTS to Identify Inhibitors of Luciferase Translation or Activity in H4-C Neuroglioblastoma Cells. [Related pubchem assays: 1813 (Primary HTS), 1827 (Project Summary)]. It counts as functional.
Experiment [6] in a line: Luminescence Cell-Based Dose Response HTS to Identify Activators of Luciferase Translation or Activity in H4-C Neuroglioblastoma Cells. [Related pubchem assays: 1829 (Project Summary), 1814 (Primary HTS)]. In kind it is functional.
Another experiment concerns the target T1, Hexokinase-1 (Homo sapiens, UniProt P19367).
T1 sequence (P19367 whole entry): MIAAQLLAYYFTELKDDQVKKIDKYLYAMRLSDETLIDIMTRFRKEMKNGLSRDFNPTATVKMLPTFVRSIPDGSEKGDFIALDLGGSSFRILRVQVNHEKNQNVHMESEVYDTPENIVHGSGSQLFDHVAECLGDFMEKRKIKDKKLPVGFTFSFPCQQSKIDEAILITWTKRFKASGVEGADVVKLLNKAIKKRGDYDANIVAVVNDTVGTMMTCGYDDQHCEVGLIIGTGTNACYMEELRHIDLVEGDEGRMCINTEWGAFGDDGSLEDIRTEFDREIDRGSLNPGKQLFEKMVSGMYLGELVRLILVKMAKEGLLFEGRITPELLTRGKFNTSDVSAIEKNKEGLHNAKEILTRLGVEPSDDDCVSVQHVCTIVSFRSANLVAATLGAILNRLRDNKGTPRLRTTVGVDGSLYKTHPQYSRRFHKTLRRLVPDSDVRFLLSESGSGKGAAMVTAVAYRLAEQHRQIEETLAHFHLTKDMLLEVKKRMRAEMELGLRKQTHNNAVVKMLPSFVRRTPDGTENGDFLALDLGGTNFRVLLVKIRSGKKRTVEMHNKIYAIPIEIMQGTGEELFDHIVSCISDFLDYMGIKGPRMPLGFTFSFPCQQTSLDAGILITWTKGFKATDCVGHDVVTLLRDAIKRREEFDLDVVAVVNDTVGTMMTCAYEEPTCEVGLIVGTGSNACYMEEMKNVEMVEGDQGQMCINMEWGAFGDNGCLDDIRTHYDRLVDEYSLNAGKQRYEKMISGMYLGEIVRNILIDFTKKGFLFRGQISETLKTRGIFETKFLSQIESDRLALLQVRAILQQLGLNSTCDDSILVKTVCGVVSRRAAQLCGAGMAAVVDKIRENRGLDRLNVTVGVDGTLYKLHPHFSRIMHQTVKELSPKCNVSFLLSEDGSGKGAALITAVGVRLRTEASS
Nature of the experiment: hexokinase 1 activators, dose response, selectivity assay for HKDC1 activator project, biochemical (AID 504762). It counts as functional.

A short description of experiment [7]: inhibitors of SNCA 5'UTR-driven reporter translation, confirmation, H4 neuroglioma cells, luminescence (AID 1988). It counts as functional, cell-based.
Experiment [8] is described as follows: inhibitors of firefly luciferase expression or activity, dose response, H4 neuroglioma cells, luminescence (AID 1990). In kind it is functional, cell-based.
A further experiment has as its target T2, Hexokinase HKDC1 (Homo sapiens, UniProt Q2TB90).
T2 sequence (Q2TB90 whole entry): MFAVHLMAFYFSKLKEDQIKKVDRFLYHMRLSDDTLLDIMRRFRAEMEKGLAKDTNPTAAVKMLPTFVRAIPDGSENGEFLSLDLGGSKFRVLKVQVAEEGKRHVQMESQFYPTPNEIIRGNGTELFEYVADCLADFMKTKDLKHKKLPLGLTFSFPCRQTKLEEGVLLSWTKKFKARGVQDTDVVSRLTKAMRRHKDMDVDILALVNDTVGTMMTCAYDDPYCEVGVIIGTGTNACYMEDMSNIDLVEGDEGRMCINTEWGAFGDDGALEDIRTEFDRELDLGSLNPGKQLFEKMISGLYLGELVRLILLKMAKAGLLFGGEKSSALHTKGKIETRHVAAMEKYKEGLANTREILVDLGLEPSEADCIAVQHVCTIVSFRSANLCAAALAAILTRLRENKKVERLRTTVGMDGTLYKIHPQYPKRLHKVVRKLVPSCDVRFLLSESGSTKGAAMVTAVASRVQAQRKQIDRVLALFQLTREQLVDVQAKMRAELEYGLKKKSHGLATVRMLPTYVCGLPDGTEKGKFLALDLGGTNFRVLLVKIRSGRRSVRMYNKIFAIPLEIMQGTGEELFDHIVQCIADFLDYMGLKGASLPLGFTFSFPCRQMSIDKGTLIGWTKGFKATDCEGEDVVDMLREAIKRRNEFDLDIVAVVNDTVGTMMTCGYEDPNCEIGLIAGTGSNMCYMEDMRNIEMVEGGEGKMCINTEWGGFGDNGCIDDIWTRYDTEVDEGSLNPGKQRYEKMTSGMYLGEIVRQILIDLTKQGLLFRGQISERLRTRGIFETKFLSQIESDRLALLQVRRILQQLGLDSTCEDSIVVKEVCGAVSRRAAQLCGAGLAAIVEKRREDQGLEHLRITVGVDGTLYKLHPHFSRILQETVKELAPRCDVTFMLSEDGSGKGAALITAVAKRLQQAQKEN
Put plainly: HKDC1 hexokinase activators, dose response, biochemical, W721R variant (AID 504730). In kind it is functional.

A short description of experiment [9]: Luminescence Cell-Based Dose Response HTS to Identify Inhibitors of 5'UTR Stem-Loop Driven Prion Protein mRNA Translation in H4 Neuroglioblastoma Cells. [Related pubchem assays: 1827 (Project Summary), 1813 (Primary HTS)]. In kind it is functional.
For experiment [10], the target named is Voltage-dependent T-type calcium channel subunit alpha-1H (Homo sapiens, UniProt O95180). Nature of the experiment: Cav3.2 T-type channel inhibitors, synthesized analogs, SAR follow-up, cell-based, synthetic library set 2, HEK293 HH8, Fluo-4 (AID 493023). It counts as functional.
Voltage-dependent T-type calcium channel subunit alpha-1H, sequence (O95180 whole entry): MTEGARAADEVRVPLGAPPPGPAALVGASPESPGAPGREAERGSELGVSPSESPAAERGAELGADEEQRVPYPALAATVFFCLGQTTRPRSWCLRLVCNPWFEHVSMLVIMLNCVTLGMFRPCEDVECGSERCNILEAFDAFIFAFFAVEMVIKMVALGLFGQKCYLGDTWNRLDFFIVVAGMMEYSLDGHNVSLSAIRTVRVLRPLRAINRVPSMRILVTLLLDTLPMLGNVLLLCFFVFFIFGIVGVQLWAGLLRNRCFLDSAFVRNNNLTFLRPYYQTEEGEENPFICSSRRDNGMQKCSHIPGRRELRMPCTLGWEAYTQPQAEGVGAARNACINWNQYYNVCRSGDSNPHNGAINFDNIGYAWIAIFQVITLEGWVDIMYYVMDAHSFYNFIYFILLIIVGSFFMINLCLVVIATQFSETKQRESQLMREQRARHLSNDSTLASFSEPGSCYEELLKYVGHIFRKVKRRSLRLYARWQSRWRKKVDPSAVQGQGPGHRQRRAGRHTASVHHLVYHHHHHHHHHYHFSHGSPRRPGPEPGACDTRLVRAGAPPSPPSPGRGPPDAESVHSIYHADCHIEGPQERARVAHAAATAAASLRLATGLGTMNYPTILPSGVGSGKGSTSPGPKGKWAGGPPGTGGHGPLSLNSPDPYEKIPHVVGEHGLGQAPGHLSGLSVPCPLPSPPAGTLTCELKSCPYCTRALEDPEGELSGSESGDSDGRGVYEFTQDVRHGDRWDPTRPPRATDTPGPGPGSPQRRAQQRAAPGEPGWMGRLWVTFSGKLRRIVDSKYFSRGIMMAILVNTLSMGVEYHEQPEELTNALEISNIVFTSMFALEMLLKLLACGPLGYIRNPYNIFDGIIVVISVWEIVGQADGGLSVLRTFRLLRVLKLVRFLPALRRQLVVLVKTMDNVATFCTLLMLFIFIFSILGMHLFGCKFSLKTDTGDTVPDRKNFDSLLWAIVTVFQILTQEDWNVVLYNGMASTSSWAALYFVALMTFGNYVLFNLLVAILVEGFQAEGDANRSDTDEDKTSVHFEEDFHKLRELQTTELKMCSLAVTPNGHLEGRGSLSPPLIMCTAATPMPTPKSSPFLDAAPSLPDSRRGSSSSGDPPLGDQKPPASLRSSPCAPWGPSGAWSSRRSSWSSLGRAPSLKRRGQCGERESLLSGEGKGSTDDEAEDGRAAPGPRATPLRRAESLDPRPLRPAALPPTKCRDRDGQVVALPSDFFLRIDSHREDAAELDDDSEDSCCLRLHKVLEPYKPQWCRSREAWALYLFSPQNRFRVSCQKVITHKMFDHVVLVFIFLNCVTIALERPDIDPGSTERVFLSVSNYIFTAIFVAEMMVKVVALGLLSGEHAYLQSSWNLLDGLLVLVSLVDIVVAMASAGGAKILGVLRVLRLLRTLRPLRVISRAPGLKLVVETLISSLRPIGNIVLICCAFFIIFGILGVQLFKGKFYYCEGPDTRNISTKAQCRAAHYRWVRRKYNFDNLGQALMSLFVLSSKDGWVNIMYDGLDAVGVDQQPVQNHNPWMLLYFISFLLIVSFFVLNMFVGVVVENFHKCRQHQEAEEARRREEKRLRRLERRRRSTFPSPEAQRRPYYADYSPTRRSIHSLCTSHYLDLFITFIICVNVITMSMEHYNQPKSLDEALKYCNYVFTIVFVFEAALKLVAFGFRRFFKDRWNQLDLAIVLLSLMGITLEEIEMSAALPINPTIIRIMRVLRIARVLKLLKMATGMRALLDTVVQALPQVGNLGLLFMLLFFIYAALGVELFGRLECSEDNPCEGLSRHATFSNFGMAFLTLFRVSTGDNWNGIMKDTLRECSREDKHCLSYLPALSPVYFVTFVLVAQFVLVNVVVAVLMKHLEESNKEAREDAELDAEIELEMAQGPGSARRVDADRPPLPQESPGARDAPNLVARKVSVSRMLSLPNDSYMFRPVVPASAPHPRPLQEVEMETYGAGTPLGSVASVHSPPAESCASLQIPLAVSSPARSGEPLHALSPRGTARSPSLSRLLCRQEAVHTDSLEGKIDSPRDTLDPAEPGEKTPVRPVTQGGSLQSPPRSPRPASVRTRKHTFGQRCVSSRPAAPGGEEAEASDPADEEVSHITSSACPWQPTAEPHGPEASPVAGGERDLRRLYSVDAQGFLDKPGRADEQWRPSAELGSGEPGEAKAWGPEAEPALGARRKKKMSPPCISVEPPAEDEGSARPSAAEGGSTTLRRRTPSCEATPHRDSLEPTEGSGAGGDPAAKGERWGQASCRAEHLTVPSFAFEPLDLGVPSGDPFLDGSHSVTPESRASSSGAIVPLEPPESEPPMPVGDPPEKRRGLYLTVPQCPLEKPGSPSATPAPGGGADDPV
The target in experiment [11] is Intestinal-type alkaline phosphatase (Homo sapiens, UniProt P09923). Put plainly: human intestinal alkaline phosphatase activators, dose response, biochemical, luminescence, uHTS hits (AID 463120). In kind it is functional.
Intestinal-type alkaline phosphatase, sequence (P09923 whole entry): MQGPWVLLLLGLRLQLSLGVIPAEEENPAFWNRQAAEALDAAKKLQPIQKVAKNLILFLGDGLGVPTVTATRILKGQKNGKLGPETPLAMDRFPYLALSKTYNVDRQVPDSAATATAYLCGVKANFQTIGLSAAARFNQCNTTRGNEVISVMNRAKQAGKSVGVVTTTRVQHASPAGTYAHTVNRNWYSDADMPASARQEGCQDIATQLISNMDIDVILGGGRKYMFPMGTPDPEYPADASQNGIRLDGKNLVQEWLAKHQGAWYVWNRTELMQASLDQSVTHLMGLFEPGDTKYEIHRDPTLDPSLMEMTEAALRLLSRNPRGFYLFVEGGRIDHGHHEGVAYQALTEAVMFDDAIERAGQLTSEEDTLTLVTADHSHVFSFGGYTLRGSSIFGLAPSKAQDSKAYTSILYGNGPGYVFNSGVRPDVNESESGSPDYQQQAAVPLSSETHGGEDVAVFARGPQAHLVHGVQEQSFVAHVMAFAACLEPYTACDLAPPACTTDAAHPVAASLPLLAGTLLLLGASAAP
Experiment [12] is described as follows: Intein inhibitors as potential Tuberculosis drugs, a cytotoxicity screen. [Related pubchem assays (depositor defined):AID2221, AID2223, AID434968, AID435010, AID449749, AID449750, AID489010]. In kind it is functional.
The target of another experiment is T3, Protein RecA (Mycobacterium tuberculosis, UniProt P9WHJ3).
T3 sequence (P9WHJ3 whole entry): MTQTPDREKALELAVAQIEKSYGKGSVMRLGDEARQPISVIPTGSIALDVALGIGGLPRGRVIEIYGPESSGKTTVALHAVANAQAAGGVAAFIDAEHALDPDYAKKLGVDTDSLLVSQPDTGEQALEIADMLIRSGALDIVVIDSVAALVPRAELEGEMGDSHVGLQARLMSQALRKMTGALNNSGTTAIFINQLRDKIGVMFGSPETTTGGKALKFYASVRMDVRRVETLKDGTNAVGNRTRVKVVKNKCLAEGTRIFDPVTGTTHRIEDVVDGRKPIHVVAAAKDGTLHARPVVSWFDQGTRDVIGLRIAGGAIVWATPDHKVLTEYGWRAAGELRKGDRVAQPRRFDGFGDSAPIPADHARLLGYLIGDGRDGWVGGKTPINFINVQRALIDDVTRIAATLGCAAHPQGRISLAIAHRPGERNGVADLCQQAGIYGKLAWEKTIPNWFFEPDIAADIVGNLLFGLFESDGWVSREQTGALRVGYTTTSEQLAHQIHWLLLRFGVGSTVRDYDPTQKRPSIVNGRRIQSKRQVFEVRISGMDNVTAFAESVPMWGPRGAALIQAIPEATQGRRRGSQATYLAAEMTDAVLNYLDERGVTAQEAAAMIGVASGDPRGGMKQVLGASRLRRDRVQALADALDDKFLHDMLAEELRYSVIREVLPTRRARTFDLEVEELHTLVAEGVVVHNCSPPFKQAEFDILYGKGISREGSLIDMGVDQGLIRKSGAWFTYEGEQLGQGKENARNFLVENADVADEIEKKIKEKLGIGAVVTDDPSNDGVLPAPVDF
Nature of the experiment: Fluorescence Cell-Free Homogeneous Dose Retest to Identify Inhibitors of RecA-Intein Splicing Activity. [Related pubchem assays (depositor defined):AID2097, AID2223, AID489010, AID492950]. In kind it is functional.

For experiment [13], the target named is T4, Replicative DNA helicase DnaB (Mycobacterium tuberculosis, UniProt P9WMR3).
T4 sequence (P9WMR3 whole entry): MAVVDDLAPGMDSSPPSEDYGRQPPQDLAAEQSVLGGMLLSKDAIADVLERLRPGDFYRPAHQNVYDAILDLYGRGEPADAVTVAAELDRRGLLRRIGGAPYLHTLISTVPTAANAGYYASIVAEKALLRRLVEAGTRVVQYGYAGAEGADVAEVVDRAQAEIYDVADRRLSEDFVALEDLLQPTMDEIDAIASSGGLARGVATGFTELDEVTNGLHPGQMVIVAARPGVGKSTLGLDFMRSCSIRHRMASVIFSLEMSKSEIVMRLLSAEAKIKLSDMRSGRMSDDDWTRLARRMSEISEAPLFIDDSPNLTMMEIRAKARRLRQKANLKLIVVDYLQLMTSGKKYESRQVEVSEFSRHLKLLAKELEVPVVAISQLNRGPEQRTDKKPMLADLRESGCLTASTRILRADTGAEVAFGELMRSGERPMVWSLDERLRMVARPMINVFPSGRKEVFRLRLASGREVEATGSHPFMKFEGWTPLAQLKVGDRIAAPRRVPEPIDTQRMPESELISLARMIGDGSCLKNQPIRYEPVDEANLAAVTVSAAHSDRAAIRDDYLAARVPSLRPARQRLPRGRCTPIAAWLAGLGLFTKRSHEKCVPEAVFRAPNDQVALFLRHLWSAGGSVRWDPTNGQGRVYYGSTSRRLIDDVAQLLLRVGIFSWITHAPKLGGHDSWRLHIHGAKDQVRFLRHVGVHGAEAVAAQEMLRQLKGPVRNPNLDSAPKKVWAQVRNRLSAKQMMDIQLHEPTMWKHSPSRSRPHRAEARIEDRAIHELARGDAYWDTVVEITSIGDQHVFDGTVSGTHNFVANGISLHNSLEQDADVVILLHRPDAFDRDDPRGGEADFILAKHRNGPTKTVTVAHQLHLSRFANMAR
Nature of the experiment: DnaB intein splicing inhibitors, dose response, biochemical, cell-free fluorescence (AID 449749). It counts as functional.

The target of another experiment is Cytochrome P450 2D6 (Homo sapiens, UniProt P10635).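 Note: CYP2D6 member of a cytochrome P450 panel assay.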
Cytochrome P450 2D6, sequence (P10635 whole entry): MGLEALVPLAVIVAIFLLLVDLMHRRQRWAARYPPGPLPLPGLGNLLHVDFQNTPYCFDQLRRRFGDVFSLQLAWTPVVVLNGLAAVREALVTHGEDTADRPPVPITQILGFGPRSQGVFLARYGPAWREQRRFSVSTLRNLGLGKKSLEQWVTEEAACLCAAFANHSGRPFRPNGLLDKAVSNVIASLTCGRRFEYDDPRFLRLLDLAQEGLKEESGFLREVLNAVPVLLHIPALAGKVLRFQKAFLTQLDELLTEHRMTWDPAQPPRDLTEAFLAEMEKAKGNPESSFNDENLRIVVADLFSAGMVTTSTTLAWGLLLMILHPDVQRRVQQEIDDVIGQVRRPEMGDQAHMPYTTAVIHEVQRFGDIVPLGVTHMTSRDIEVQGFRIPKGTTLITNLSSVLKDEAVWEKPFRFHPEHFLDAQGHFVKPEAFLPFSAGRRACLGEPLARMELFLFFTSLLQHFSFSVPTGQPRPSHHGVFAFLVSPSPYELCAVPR
The nature of experiment [14]: Luminescence Cell-Based Dose Retest to Confirm Inhibitors of Cancer Stem Cells. [Related pubchem assays (depositor defined):AID2717, AID2721]. In kind it is functional. The following applies: Homo sapiens.
Experiment [15] deals with T5, E3 ubiquitin-protein ligase XIAP (Homo sapiens, UniProt P98170). Put plainly: XIAP antagonists, biochemical, IAP family, fluorescence polarization (AID 1018). It counts as functional. (In general: In fluorescence polarisation assays a small probe gives low polarisation when free and higher when bound to something large.)
T5 sequence (P98170 whole entry): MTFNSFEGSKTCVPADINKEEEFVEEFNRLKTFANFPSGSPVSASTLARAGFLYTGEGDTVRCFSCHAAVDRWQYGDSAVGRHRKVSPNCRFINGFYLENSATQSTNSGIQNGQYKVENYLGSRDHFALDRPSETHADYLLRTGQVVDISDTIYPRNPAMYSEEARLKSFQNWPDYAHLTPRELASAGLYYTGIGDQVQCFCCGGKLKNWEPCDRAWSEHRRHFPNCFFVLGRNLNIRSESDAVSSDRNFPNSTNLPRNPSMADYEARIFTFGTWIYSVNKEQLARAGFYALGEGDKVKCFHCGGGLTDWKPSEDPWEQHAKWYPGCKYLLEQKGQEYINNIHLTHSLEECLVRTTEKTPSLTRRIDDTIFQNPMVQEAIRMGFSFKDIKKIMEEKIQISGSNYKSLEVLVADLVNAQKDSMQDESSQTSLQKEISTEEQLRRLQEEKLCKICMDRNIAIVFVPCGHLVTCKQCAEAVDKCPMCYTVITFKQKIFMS
Experiment [16] has as its target T5, E3 ubiquitin-protein ligase XIAP. Put plainly: Counter Screen using XIAP-Bir3 for Chemical Antagonists of Bir1/2 domains of IAP-family anti-apoptotic proteins. [Related pubchem assays (depositor defined):AID1018, AID1449, AID1514, AID1638, AID1749, AID1750, AID488957, AID488963]. For orientation: Counterscreens check selectivity or assay interference.
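Throughout, for CC50: cells exposed to compound for 72 hours before luminescence readout.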

Usually EC50 stands for the concentration giving half of the maximal effect. Turning to `CC[n+]1c(/C=C/C=C/c2ccc(N(C)C)cc2)sc2ccccc21`, the EC50 was 26.3 µM (inconclusive) in [1]; 1.54 µM (active) in experiment [2]; 26.3 µM (active) in experiment [3]; 1.54 µM (inconclusive) in experiment [4]; 2.69 µM (active) in experiment [5]; 2.69 µM (inconclusive) in [6].

Take `COc1cc(OC)cc(C(=O)NC(=S)NNC(=O)c2cnccn2)c1`: the EC50 on Hexokinase-1 is > 80 µM (inactive); in [7], 10.2 µM (active); in [8], > 120 µM (not active); on Hexokinase HKDC1, 11.5 µM (active); in experiment [9], 11.5 µM (active).

Regarding `O=C(N[C@@H]1CCCN(Cc2ccccc2)C1)c1cc(Cl)cc(Cl)c1`, in experiment [10], the EC50 was 10 µM (active).

Consider `N#CCN1C(=S)N=C(Nc2cccc(Cl)c2)C12CCCCC2`, for which the EC50 in experiment [11] was > 100 µM (inactive); in experiment [7] it was > 120 µM (not active); in experiment [8], > 120 µM (not active); in experiment [9], > 120 µM (not active).

By CC50 is commonly meant the concentration at which the toxic effect on the cells reaches its halfway point. Usually AC50 stands for the concentration giving half of the maximal activity seen. With `CC(C)CCn1c(N)c(C(=O)NCc2cccs2)c2nc3ccccc3nc21`, the CC50 in experiment [12] is > 40 µM (active). Further, the EC50 on Protein RecA is 3.04 µM (active). In addition, the AC50 was 4.01 µM (active) in experiment [13], 8.91 µM (inconclusive) at Cytochrome P450 2D6 and 3.46 µM (active) in experiment [14].

One may read the IC50 as the concentration that gives 50% inhibition. With `CCOC(=O)C1(CCCc2ccccc2)CCN(C(=O)C2=C(C)OCCO2)CC1`, the IC50 in experiment [15] was > 100 µM (not active); in experiment [16] it was > 100 µM (inactive).
